Experimental data taken from patent US20210380548A1, “Fused [1,2,4]Thiadiazine Derivatives Which Act as KAT Inhibitors of the MYST Family” (CTxT Pty Limited, priority 2017, published 2021).

Columns and labels:
MOZ-KAT6A = target: T1, MOZ-KAT6A (Homo sapiens, UniProt Q92794, A567V); experiment: Revised Acetyltransferase Biochemical Assay, KAT6A; conditions: Table 8 (MOZ-KAT6A), 1 μM Acetyl coenzyme A
T1 construct: encoding amino acid residues 507 to 778 (Uniprot Q92794-1) of human KAT6A; made in house; host or cells: E. coli BL21 DE3

TIP60-KAT5 [1] = target: T2, TIP60-KAT5 (Homo sapiens, UniProt Q92993); experiment: Acetyltransferase biochemical assay (AlphaScreen), KAT5; conditions: Table 1 (TIP60-KAT5); 0.4 μM Acetyl coenzyme A, histone H4, 10 nM enzyme
T2 construct: encoding amino acid residues 2 to 461 (Uniprot Q92993-2) of human KAT5 isoform; made in house; host or cells: E. coli BL21 DE3

TIP60-KAT5 [2] = target: T2, TIP60-KAT5; experiment: Revised Acetyltransferase Biochemical Assay, KAT5; conditions: 10 nM KAT5, 1 μM AcCoA, 100 nM histone H4, 90 min
HBO-KAT7 [3] = target: T3, HBO-KAT7 (Homo sapiens, UniProt O95251); experiment: Revised Acetyltransferase Biochemical Assay, KAT7; conditions: Table 9 (HBO-KAT7), 1 μM Acetyl coenzyme A
T3 construct: encoding amino acid residues 325 to 611 (Uniprot 095251-1) of human KAT7; made in house; host or cells: E. coli BL21 DE3 RIL

HBO-KAT7 [4] = target: T3, HBO-KAT7; experiment: Acetyltransferase biochemical assay (AlphaScreen), KAT7; conditions: Table 3 (HBO-KAT7); 0.4 μM Acetyl coenzyme A, histone H3.1, 40 nM enzyme

T1 sequence (Q92794 507-778 A567V limits assumed): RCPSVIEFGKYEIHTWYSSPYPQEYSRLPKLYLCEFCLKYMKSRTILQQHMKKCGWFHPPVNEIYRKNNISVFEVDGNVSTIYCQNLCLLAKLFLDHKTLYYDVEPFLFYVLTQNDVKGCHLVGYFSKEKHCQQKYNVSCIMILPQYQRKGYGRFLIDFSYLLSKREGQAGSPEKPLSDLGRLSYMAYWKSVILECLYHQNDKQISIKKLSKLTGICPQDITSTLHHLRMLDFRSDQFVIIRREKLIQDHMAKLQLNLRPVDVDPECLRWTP
T3 sequence (O95251 with tags, fused parts or gaps): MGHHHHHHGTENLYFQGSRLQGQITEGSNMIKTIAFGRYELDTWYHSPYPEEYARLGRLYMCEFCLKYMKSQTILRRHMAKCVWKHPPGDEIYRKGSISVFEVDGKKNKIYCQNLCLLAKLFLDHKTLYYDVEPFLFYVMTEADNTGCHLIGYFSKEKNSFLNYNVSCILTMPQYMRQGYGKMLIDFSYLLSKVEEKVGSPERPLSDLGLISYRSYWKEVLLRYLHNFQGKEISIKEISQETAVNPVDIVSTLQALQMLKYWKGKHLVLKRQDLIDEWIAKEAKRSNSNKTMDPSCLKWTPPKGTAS
T2 sequence (Q92993 2-461 isoform Q92993-2): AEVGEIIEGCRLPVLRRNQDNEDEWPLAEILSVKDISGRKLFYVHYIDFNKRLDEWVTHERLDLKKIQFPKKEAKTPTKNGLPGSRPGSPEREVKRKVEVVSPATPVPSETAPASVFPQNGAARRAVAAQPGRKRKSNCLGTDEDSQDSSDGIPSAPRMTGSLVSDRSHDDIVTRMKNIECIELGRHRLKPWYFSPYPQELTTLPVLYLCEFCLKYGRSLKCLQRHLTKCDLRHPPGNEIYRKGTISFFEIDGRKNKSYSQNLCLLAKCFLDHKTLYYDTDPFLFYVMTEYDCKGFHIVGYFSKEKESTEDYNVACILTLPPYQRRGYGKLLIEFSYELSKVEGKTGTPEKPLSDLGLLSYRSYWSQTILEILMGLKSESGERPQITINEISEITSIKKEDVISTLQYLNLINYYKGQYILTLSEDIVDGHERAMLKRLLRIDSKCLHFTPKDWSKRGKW

Compound	IC50 (MOZ-KAT6A) [µM]	IC50 (TIP60-KAT5 [1]) [µM]	IC50 (TIP60-KAT5 [2]) [µM]	IC50 (HBO-KAT7 [3]) [µM]	IC50 (HBO-KAT7 [4]) [µM]
COc1ccccc1C(O)CNC(=O)C1=Nc2ccc(I)cc2S(=O)(=O)N1 (single isomer, unassigned) [Example 150]	1.02	3.17	1.38	3.59	–
Cc1ncccc1-c1ccccc1CCNC(=O)C1=Nc2ccccc2S(=O)(=O)N1 [Example 6, N-(2-(2-Methylpyridin-3-yl)phenethyl)-2H-benzo[e][1,2,4]thiadiazine-3-carboxamide 1,1-dioxide]	18.7	90.1	> 125	21.3	–
O=C(NCCc1ccccc1C(=O)O)C1=Nc2ccccc2S(=O)(=O)N1 [Example 30, 2-(2-(1,1-Dioxido-2H-benzo[e][1,2,4]thiadiazine-3-carboxamido)ethyl)benzoic Acid]	–	112	–	–	–
Cn1cc(-c2ccccc2CCNC(=O)C2=Nc3ccccc3S(=O)(=O)N2)cn1 [Example 40, N-(2-(1-methyl-1H-pyrazol-4-yl)phenethyl)-2H-benzo[e][1,2,4]thiadiazine-3-carboxamide 1,1-dioxide]	–	> 125	–	–	9.45
C#Cc1ccc2c(c1)S(=O)(=O)NC(C(=O)NCC(c1ccccc1)c1ncco1)=N2 (stereo not shown) [Example 42, 7-ethynyl-N-(2-(oxazol-2-yl)-2-phenylethyl)-2H-benzo[e][1,2,4]thiadiazine-3-carboxamide 1,1-dioxide]	–	0.642	–	–	0.255
O=C(NCC(C(=O)N1CCCC1)c1ccccc1)C1=Nc2ccccc2S(=O)(=O)N1 (stereo not shown) [Example 44, N-(3-oxo-2-phenyl-3-(pyrrolidin-1-yl)propyl)-2H-benzo[e][1,2,4]thiadiazine-3-carboxamide 1,1-dioxide]	–	> 125	–	–	–
CC(C)OC(=O)NC(CNC(=O)C1=Nc2ccccc2S(=O)(=O)N1)c1ccccc1 (stereo not shown) [Example 50, Isopropyl (2-(1,1-dioxido-2H-benzo[e][1,2,4]thiadiazine-3-carboxamido)-1-phenylethyl) carbamate]	6.19	–	> 125	49.1	–
COC(CNC(=O)C1=Nc2ccc(I)cc2S(=O)(=O)N1)c1ccccc1OC(F)F (stereo not shown) [Example 58, N-(2-(2-(difluoromethoxy)phenyl)-2-methoxyethyl)-7-iodo-2H-benzo[e][1,2,4]thiadiazine-3-carboxamide 1,1-dioxide]	–	2.58	–	–	1.59
CCOC(=O)C(CNC(=O)C1=Nc2ccccc2S(=O)(=O)N1)c1ccccc1 (stereo not shown) [Example 73, ethyl 3-(1,1-dioxido-2H-benzo[e][1,2,4]thiadiazine-3-carboxamido)-2-phenylpropanoate]	–	10.1	–	–	26.4
O=C(NCC(O)c1ccccc1F)C1=Nc2ccc(I)cc2S(=O)(=O)N1 (stereo not shown) [Example 89]	–	2.06	–	–	3.37
O=C(NCCc1ccccc1O)C1=Nc2ccc(I)cc2S(=O)(=O)N1 [Example 90]	–	0.96	–	–	0.915
COc1ccccc1C(O)CNC(=O)C1=Nc2ccc(I)cc2S(=O)(=O)N1 (stereo not shown) [Example 94]	–	2.82	–	–	3.8
O=C(NCC(O)c1ccccc1C(F)(F)F)C1=Nc2ccc(I)cc2S(=O)(=O)N1 (stereo not shown) [Example 95]	–	5.18	–	–	4.22
O=C(NCCc1ccc(CO)cc1)C1=Nc2ccc(I)cc2S(=O)(=O)N1 [Example 103]	–	> 125	–	–	> 125
O=C(NCCc1ccncc1)C1=Nc2ccc(I)cc2S(=O)(=O)N1 [Example 104]	–	> 125	–	–	> 125
O=C(NCCc1ccc(O)cc1)C1=Nc2ccc(I)cc2S(=O)(=O)N1 [Example 105]	–	46.3	–	–	> 125
COc1ccc(CCNC(=O)C2=Nc3ccc(I)cc3S(=O)(=O)N2)cc1 [Example 106]	–	> 125	–	–	> 125
O=C(NCCc1ccccc1CO)C1=Nc2ccc(I)cc2S(=O)(=O)N1 [Example 109, N-(2-(hydroxymethyl)phenethyl)-7-iodo-2H-benzo[e][1,2,4]thiadiazine-3-carboxamide 1,1-dioxide]	–	3.42	–	–	5.95
CNC(=O)c1ccccc1CCNC(=O)C1=Nc2ccc(I)cc2S(=O)(=O)N1 [Example 110]	–	75.6	–	–	101
CN(C)C(=O)c1ccccc1CCNC(=O)C1=Nc2ccc(I)cc2S(=O)(=O)N1 [Example 111]	–	16.6	–	–	81.4
O=C(NCC(O)c1ccccc1OCc1ccccc1)C1=Nc2ccc(I)cc2S(=O)(=O)N1 (stereo not shown) [Example 119]	–	5.26	–	–	18.5

Compound	IC50 (MOZ-KAT6A) [µM]	IC50 (TIP60-KAT5 [1]) [µM]	IC50 (TIP60-KAT5 [2]) [µM]	IC50 (HBO-KAT7 [3]) [µM]	IC50 (HBO-KAT7 [4]) [µM]
COc1cccc(C(O)CNC(=O)C2=Nc3ccc(I)cc3S(=O)(=O)N2)c1 (stereo not shown) [Example 121]	–	40.8	–	–	47
O=C(NCC(F)c1ccccc1)C1=Nc2ccc(I)cc2S(=O)(=O)N1 (stereo not shown) [Example 123]	–	5.01	–	–	1.72
O=C(NCC(O)c1cccc(Cl)c1)C1=Nc2ccc(I)cc2S(=O)(=O)N1 (stereo not shown) [Example 124]	–	24.6	–	–	18.7
O=C(NCC(O)c1ccc(Cl)cc1)C1=Nc2ccc(I)cc2S(=O)(=O)N1 (stereo not shown) [Example 125]	–	> 125	–	–	> 125
O=C(NCC(O)c1cccc(F)c1)C1=Nc2ccc(I)cc2S(=O)(=O)N1 (stereo not shown) [Example 126]	–	31.3	–	–	12.4
O=C(NCCc1ccccc1C(=O)O)C1=Nc2ccc(I)cc2S(=O)(=O)N1 [Example 155, 2-(2-(7-Iodo-1,1-dioxido-2H-benzo[e][1,2,4]thiadiazine-3-carboxamido)ethyl)benzoic Acid]	0.595	–	2.68	9.52	–
O=C(NCC(c1ccccc1)c1nnc(C(F)F)o1)C1=Nc2ccc(I)cc2S(=O)(=O)N1 (stereo not shown) [Example 185]	0.042	–	0.994	0.264	–
O=C(NCCc1ccccc1-n1ccnc1)C1=Nc2ccc(I)cc2S(=O)(=O)N1 [Example 192]	0.613	–	11.1	2.3	–
COCc1ccccc1C(CNC(=O)C1=Nc2ccccc2S(=O)(=O)N1)c1ncco1 (stereo not shown) [Example 194]	5.56	–	≥ 125	26	–
O=C(NCCc1ccccc1-c1n[nH]c(=O)o1)C1=Nc2ccccc2S(=O)(=O)N1 [Example 195]	0.209	–	1.85	2.21	–
O=C(NCC(O)C1CCCCC1)C1=Nc2ccc(Cl)cc2S(=O)(=O)N1 (stereo not shown) [Example 200]	9.8	–	> 125	> 125	–
O=C(NCC1(c2ccccc2)CCCC1)C1=Nc2ccccc2S(=O)(=O)N1 [Example 205]	0.97	–	30	2.73	–
CC(N)c1ccc2c(c1)S(=O)(=O)NC(C(=O)NCC(c1ccccc1)c1ncco1)=N2 (stereo not shown) [Example 208, 7-(1-Aminoethyl)-N-(2-(oxazol-2-yl)-2-phenylethyl)-2H-benzo[e][1,2,4]thiadiazine-3-carboxamide 1,1-dioxide]	1.6	–	13.3	4.51	–
CNC(C)c1ccc2c(c1)S(=O)(=O)NC(C(=O)NCC(c1ccccc1)c1ncco1)=N2 (stereo not shown) [Example 209, 7-(1-(Methylamino)ethyl)-N-(2-(oxazol-2-yl)-2-phenylethyl)-2H-benzo[e][1,2,4]thiadiazine-3-carboxamide 1,1-dioxide]	0.378	–	8.45	1.67	–
CC(NS(C)(=O)=O)c1ccc2c(c1)S(=O)(=O)NC(C(=O)NCC(c1ccccc1)c1ncco1)=N2 (stereo not shown) [Example 210, 7-(1-(Methylsulfonamido)ethyl)-N-(2-(oxazol-2-yl)-2-phenylethyl)-2H-benzo[e][1,2,4]thiadiazine-3-carboxamide 1,1-dioxide]	0.303	–	10.9	1.12	–
CC(=O)NC(C)c1ccc2c(c1)S(=O)(=O)NC(C(=O)NCC(c1ccccc1)c1ncco1)=N2 (stereo not shown) [Example 211, 7-(1-Acetamidoethyl)-N-(2-(oxazol-2-yl)-2-phenylethyl)-2H-benzo[e][1,2,4]thiadiazine-3-carboxamide 1,1-dioxide]	2.18	–	24.7	6.07	–
COc1ccc2c(c1)S(=O)(=O)NC(C(=O)NCC(c1cccc(Cl)c1)c1ncco1)=N2 (stereo not shown) [Example 223, N-(2-(3-Chlorophenyl)-2-(oxazol-2-yl)ethyl)-7-methoxy-2H-benzo[e][1,2,4]thiadiazine-3-carboxamide 1,1-dioxide]	0.216	–	3.32	1.01	–
O=C(NCC(c1cccc(Cl)c1)c1ncco1)C1=Nc2ccc(O)cc2S(=O)(=O)N1 (stereo not shown) [Example 224, N-(2-(3-chlorophenyl)-2-(oxazol-2-yl)ethyl)-7-hydroxy-2H-benzo[e][1,2,4]thiadiazine-3-carboxamide 1,1-dioxide]	0.165	–	9.01	0.204	–
NC(=O)c1ccccc1CCNC(=O)C1=Nc2ccc(I)cc2S(=O)(=O)N1 [Example 230, N-(2-Carbamoylphenethyl)-7-iodo-2H-benzo[e][1,2,4]thiadiazine-3-carboxamide 1,1-dioxide]	0.761	–	4.9	2.3	–
O=C(NCC1(c2ncco2)CCCC1)C1=Nc2ccccc2S(=O)(=O)N1 [Example 242, N-((1-(oxazol-2-yl)cyclopentyl)methyl)-2H-benzo[e][1,2,4]thiadiazine-3-carboxamide 1,1-dioxide]	2.77	–	123	33	–
